Data taken from the supplement of paper PMC11208160.

Assay: recombinant UMI read abundance after kanamycin selection (control-corrected) (log10(CPM+1)); higher = more efficient recombination; extreme values may be limits of the assay; sequences stand for … in AGTGCAGAGAAAATCGGCCAGTTTTCTCTGCCTGCAGTCCGCATGCCGTGGGACCCCTTGGGTTCTAACCTGTTGCCTAGATTTATGCAGCGGACTGCCTTTCTCCCAAAGTGATAAACCGG…AGGTTGGTTTCACT; site = the 11-nt donor
In short: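 For the IS621 bridge recombinase, a pooled Escherichia coli screen tested donor and donor-binding-loop pairs. Cells received the pair library together with a target plasmid encoding a fixed target and T7-inducible recombinase, then went onto IPTG (0.07 mM) plus kanamycin or unselected plates in duplicate. After PCR across the donor–target junction and sequencing, recombinant UMI counts were normalized to CPM, averaged, and scaled by control-derived factors. Each value is given as log10(CPM+1).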
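Also: IS621 bridge recombinase in Escherichia coli cells against a fixed T5 target plasmid.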

Point of comparison: “ATTGAGACATGGACCGGTTTTCCCGGTAATCCGTATTTGAT (site ATTGAGACTAT)”, “recombinant UMI read abundance (log10)” value 2.01. Against it:
- ATGTTTGCATGGACCGGTTTTCCCGGTAATCCGTATTTGCT (site ATGTTTGCTAG) — within 0.2 log units, 1.94
- ATTCCCTCATGGACCGGTTTTCCCGGTAATCCGTATTTGAC (site ATTCCCTCTGT) — higher, 3.23
- ATTCCTACATGGACCGGTTTTCCCGGTAATCCGTATTTGAC (site ATTCCTACTGT) — lower, 0.882
- ATTCGAGCATGGACCGGTTTTCCCGGTAATCCGTATTTGCA (site ATTCGAGCTTG) — lower, 1.49
- ATTCGAGCATGGACCGGTTTTCCCGGTAATCCGTATTTGCA (site CTTCGAGCTTG) — lower, 1.44
- ATTCGAGCATGGACCGGTTTTCCCGGTAATCCGTATTTGCA (site GTTCGAGCTTG) — lower, 0.663
- ATTCGAGCATGGACCGGTTTTCCCGGTAATCCGTATTTGCA (site TTTCGAGCTTG) — lower, 0.947
- ATTCGCCCATGGACCGGTTTTCCCGGTAATCCGTATTTGAA (site ATTCGCCCTTT) — lower, 0.156
- ATTCGCTCATGGACCGGTTTTCCCGGTAATCCGTATTTGAA (site ATTCGCTCTTT) — lower, 0.571
- ATTCTCTCATGGACCGGTTTTCCCGGTAATCCGTATTTGTA (site ATTCTCTCTTA) — higher, 2.35
- ATTCTCTCATGGACCGGTTTTCCCGGTAATCCGTATTTGTA (site CTTCTCTCTTA) — higher, 2.42
- ATTCTCTCATGGACCGGTTTTCCCGGTAATCCGTATTTGTA (site GTTCTCTCTTA) — lower, 1.52
- ATTCTCTCATGGACCGGTTTTCCCGGTAATCCGTATTTGTA (site TTTCTCTCTTA) — lower, 1.58
- ATTCTTACATGGACCGGTTTTCCCGGTAATCCGTATTTGAG (site ATTCTTACTCT) — lower, 0.0416
- ATTGAAACATGGACCGGTTTTCCCGGTAATCCGTATTTGGC (site ATTGAAACTGC) — within 0.2 log units, 2.15
- ATTGAAGCATGGACCGGTTTTCCCGGTAATCCGTATTTGCA (site ATTGAAGCTTG) — higher, 2.44
- ATTGACACATGGACCGGTTTTCCCGGTAATCCGTATTTGAC (site ATTGACACTGT) — higher, 2.61
- ATTGAGACATGGACCGGTTTTCCCGGTAATCCGTATTTGAT (site ATTGAGACTAA) — lower, 0.37
- ATTGAGACATGGACCGGTTTTCCCGGTAATCCGTATTTGAT (site ATTGAGACTAC) — lower, 0.217
- ATTGAGACATGGACCGGTTTTCCCGGTAATCCGTATTTGAT (site ATTGAGACTAG) — lower, 0.528
- ATTGATACATGGACCGGTTTTCCCGGTAATCCGTATTTGCG (site CCACTCCCTGT) — lower, 0
- ATTGCACCATGGACCGGTTTTCCCGGTAATCCGTATTTGGT (site ATTGCACCTAC) — lower, 0.00574
- ATTGCCACATGGACCGGTTTTCCCGGTAATCCGTATTTGCC (site ATTGCCACTGG) — within 0.2 log units, 1.95
- ATTGTAACATGGACCGGTTTTCCCGGTAATCCGTATTTGAG (site ATTGTAACTCT) — lower, 0.94
- ATTGTATCATGGACCGGTTTTCCCGGTAATCCGTATTTGTC (site ATTGTATCTGA) — lower, 1.56
- ATTGTGACATGGACCGGTTTTCCCGGTAATCCGTATTTGCT (site ATTGTGACTAG) — higher, 2.98
- ATTTCAACATGGACCGGTTTTCCCGGTAATCCGTATTTGAC (site ATTTCAACTGT) — lower, 0.461
- ATTTCCACATGGACCGGTTTTCCCGGTAATCCGTATTTGTC (site ATTTCCACTGA) — lower, 0.636
- ATTTGGGCATGGACCGGTTTTCCCGGTAATCCGTATTTGGG (site ATTTGGGCTCC) — lower, 0.0319
- CAAAATCCATGGACCGGTTTTCCCGGTAATCCGTATTTGTA (site CAAAATCCTTA) — lower, 1.8
- CAAAGGGCATGGACCGGTTTTCCCGGTAATCCGTATTTGTA (site CAAAGGGCTTA) — higher, 2.57
- CAAAGTCCATGGACCGGTTTTCCCGGTAATCCGTATTTGTA (site AAAAGTCCTTA) — lower, 0.474
- CAAAGTCCATGGACCGGTTTTCCCGGTAATCCGTATTTGTA (site CAAAGTCCTTA) — within 0.2 log units, 2.04
- CAAAGTCCATGGACCGGTTTTCCCGGTAATCCGTATTTGTA (site GAAAGTCCTTA) — lower, 0.405
- CAAAGTCCATGGACCGGTTTTCCCGGTAATCCGTATTTGTA (site TAAAGTCCTTA) — lower, 0.742
- CAAATATCATGGACCGGTTTTCCCGGTAATCCGTATTTGAC (site CAAATATCTGT) — lower, 1.58
- CAAATATCATGGACCGGTTTTCCCGGTAATCCGTATTTGAC (site CTAGTATCTGT) — lower, 0.632
- CAACATACATGGACCGGTTTTCCCGGTAATCCGTATTTGGG (site CAACATACTCC) — lower, 0.887
- CAACTCTCATGGACCGGTTTTCCCGGTAATCCGTATTTGGT (site CAACTCTCTAC) — higher, 2.56
- CAACTGACATGGACCGGTTTTCCCGGTAATCCGTATTTGCA (site CAACTGACTTG) — higher, 2.73
- CAACTTCCATGGACCGGTTTTCCCGGTAATCCGTATTTGTT (site CAACTTCCTAA) — lower, 1.5
- CAAGAAGCATGGACCGGTTTTCCCGGTAATCCGTATTTGCT (site CAAGAAGCTAG) — lower, 1.55
- CAAGAAGCATGGACCGGTTTTCCCGGTAATCCGTATTTGCT (site CAAGCAGCTAG) — lower, 0
- CAAGAAGCATGGACCGGTTTTCCCGGTAATCCGTATTTGCT (site CAAGGAGCTAG) — within 0.2 log units, 1.87
- CAAGAAGCATGGACCGGTTTTCCCGGTAATCCGTATTTGCT (site CAAGTAGCTAG) — lower, 1.17
- CAAGAGTCATGGACCGGTTTTCCCGGTAATCCGTATTTGGT (site CAAGAGTCTAC) — higher, 2.79
- CAAGATTCATGGACCGGTTTTCCCGGTAATCCGTATTTGGG (site CAAGATTCTCC) — lower, 0.89
- CAAGCACCATGGACCGGTTTTCCCGGTAATCCGTATTTGCT (site CAAGCAACTAG) — lower, 0
- CAAGCACCATGGACCGGTTTTCCCGGTAATCCGTATTTGCT (site CAAGCACCTAG) — lower, 0.47
- CAAGCACCATGGACCGGTTTTCCCGGTAATCCGTATTTGCT (site CAAGCAGCTAG) — lower, 0.0135
- CAAGCACCATGGACCGGTTTTCCCGGTAATCCGTATTTGCT (site CAAGCATCTAG) — lower, 0.0059
- CAAGCAGCATGGACCGGTTTTCCCGGTAATCCGTATTTGCC (site CAAGCAGCTAG) — within 0.2 log units, 1.86
- CAAGCAGCATGGACCGGTTTTCCCGGTAATCCGTATTTGCC (site CAAGCAGCTCG) — lower, 1.16
- CAAGCAGCATGGACCGGTTTTCCCGGTAATCCGTATTTGCC (site CAAGCAGCTGG) — higher, 2.75
- CAAGCAGCATGGACCGGTTTTCCCGGTAATCCGTATTTGCC (site CAAGCAGCTTG) — within 0.2 log units, 1.94
- CAAGCATCATGGACCGGTTTTCCCGGTAATCCGTATTTGCT (site CAAGCAACTAG) — lower, 0
- CAAGCATCATGGACCGGTTTTCCCGGTAATCCGTATTTGCT (site CAAGCACCTAG) — lower, 0
- CAAGCATCATGGACCGGTTTTCCCGGTAATCCGTATTTGCT (site CAAGCAGCTAG) — lower, 0
- CAAGCATCATGGACCGGTTTTCCCGGTAATCCGTATTTGCT (site CAAGCATCTAG) — within 0.2 log units, 2.05
- CAAGCCTCATGGACCGGTTTTCCCGGTAATCCGTATTTGTC (site CAAGCCTCTGA) — higher, 3.3
- CAAGCGCCATGGACCGGTTTTCCCGGTAATCCGTATTTGTT (site CAAGCGCCTAA) — within 0.2 log units, 2.13
- CAAGCGCCATGGACCGGTTTTCCCGGTAATCCGTATTTGTT (site CAAGCGCCTCA) — lower, 0.0113
- CAAGCGCCATGGACCGGTTTTCCCGGTAATCCGTATTTGTT (site CAAGCGCCTGA) — lower, 1.75
- CAAGCGCCATGGACCGGTTTTCCCGGTAATCCGTATTTGTT (site CAAGCGCCTTA) — lower, 0.663
- CAAGCTGCATGGACCGGTTTTCCCGGTAATCCGTATTTGCT (site CAAGCAGCTAG) — lower, 0.397
- CAAGCTGCATGGACCGGTTTTCCCGGTAATCCGTATTTGCT (site CAAGCCGCTAG) — lower, 0.95
- CAAGCTGCATGGACCGGTTTTCCCGGTAATCCGTATTTGCT (site CAAGCGGCTAG) — lower, 0
- CAAGCTGCATGGACCGGTTTTCCCGGTAATCCGTATTTGCT (site CAAGCTGCTAG) — higher, 2.42
- CAAGGAGCATGGACCGGTTTTCCCGGTAATCCGTATTTGTC (site CAAGGAGCTGA) — higher, 3.18
- CAAGTCACATGGACCGGTTTTCCCGGTAATCCGTATTTGAG (site CAAGTCACTCA) — lower, 1.48
- CAAGTCACATGGACCGGTTTTCCCGGTAATCCGTATTTGAG (site CAAGTCACTCC) — lower, 0.563
- CAAGTCACATGGACCGGTTTTCCCGGTAATCCGTATTTGAG (site CAAGTCACTCG) — lower, 1.1
- CAAGTCACATGGACCGGTTTTCCCGGTAATCCGTATTTGAG (site CAAGTCACTCT) — within 0.2 log units, 1.82
- CAAGTCCCATGGACCGGTTTTCCCGGTAATCCGTATTTGCT (site CAAATCCCTAG) — lower, 0
